Reference: ChEMBL document CHEMBL4219160, “The discovery of novel diarylpyri(mi)dine derivatives with high level activity against a wide variety of HIV-1 strains as well as against HIV-2” (Bioorg Med Chem, 2018)

How the values were obtained:
[1] = molecular target: Human immunodeficiency virus type 1 reverse transcriptase (Human immunodeficiency virus 1, UniProt Q72547); assay: Inhibition of wild type HIV1 reverse transcriptase using poly (A)/oligo (dT)15 as template/primer assessed as decrease in biotin-dUTP incorporation after 1 hr by ELISA
[2] = system: Human immunodeficiency virus 2; assay: Antiviral activity against HIV2 ROD infected in human MT4 cells assessed as protection against virus-induced cytopathic effect after 5 days by MTT assay; assay type: functional, organism-based; conditions: Human immunodeficiency virus 2, ISOLATE ROD, MT4, 120 h
[3] = Cytotoxicity against human MT4 cells assessed as reduction in cell viability after 5 days by MTT assay; assay type: cell-based
[4] = system: Human immunodeficiency virus 1; assay: Antiviral activity against HIV1 harboring reverse transcriptase L100I mutant infected in human MT4 cells assessed as protection against virus-induced cytopathic effect after 5 days by MTT assay; assay type: functional, organism-based; conditions: Human immunodeficiency virus 1, MT4, 120 h
[5] = system: Human immunodeficiency virus 1; assay: Antiviral activity against HIV1 harboring reverse transcriptase K103N mutant infected in human MT4 cells assessed as protection against virus-induced cytopathic effect after 5 days by MTT assay; assay type: functional, organism-based; conditions: Human immunodeficiency virus 1, MT4, 120 h
[6] = system: Human immunodeficiency virus 1; assay: Antiviral activity against HIV1 harboring reverse transcriptase Y181C mutant infected in human MT4 cells assessed as protection against virus-induced cytopathic effect after 5 days by MTT assay; assay type: functional, organism-based; conditions: Human immunodeficiency virus 1, MT4, 120 h
[7] = system: Human immunodeficiency virus 1; assay: Antiviral activity against HIV1 harboring reverse transcriptase Y188L mutant infected in human MT4 cells assessed as protection against virus-induced cytopathic effect after 5 days by MTT assay; assay type: functional, organism-based; conditions: Human immunodeficiency virus 1, MT4, 120 h
[8] = system: Human immunodeficiency virus 1; assay: Antiviral activity against HIV1 harboring reverse transcriptase E138K mutant infected in human MT4 cells assessed as protection against virus-induced cytopathic effect after 5 days by MTT assay; assay type: functional, organism-based; conditions: Human immunodeficiency virus 1, MT4, 120 h
[9] = system: Human immunodeficiency virus 1; assay: Antiviral activity against HIV1 harboring reverse transcriptase F227L/V106A double mutant infected in human MT4 cells assessed as protection against virus-induced cytopathic effect after 5 days by MTT assay; assay type: functional, organism-based; conditions: Human immunodeficiency virus 1, MT4, 120 h
[10] = system: Human immunodeficiency virus 1; assay: Antiviral activity against HIV1 harboring reverse transcriptase RES056 double mutant infected in human MT4 cells assessed as protection against virus-induced cytopathic effect after 5 days by MTT assay; assay type: functional, organism-based; conditions: Human immunodeficiency virus 1, MT4, 120 h
[11] = molecular target: Human immunodeficiency virus type 1 reverse transcriptase (Human immunodeficiency virus 1, UniProt Q72547, K103N/Y181C); assay: Inhibition of HIV1 reverse transcriptase K103N/Y181C double mutant using poly (A)/oligo (dT)15 as template/primer assessed as decrease in biotin-dUTP incorporation after 1 hr by ELISA
in vitro = conditions: human, MT4 cells
Description: Selectivity index, ratio of CC50 for human MT4 cells to EC50 for wild type HIV1 3B infected in human MT4 cells

[12] = system: Human immunodeficiency virus 1; assay: microbe, parasite or virus in culture; conditions: Human immunodeficiency virus 1, 3B, MT4, 120 h
Description: Antiviral activity against wild type HIV1 3B infected in human MT4 cells assessed as protection against virus-induced cytopathic effect after 5 days by MTT assay

SMILES	IC50 [1]	EC50 [2]	CC50 at 120 h [3]	EC50 [4]	EC50 [5]	EC50 [6]	EC50 [7]	EC50 [8]	EC50 [9]	EC50 [10]	IC50 [11]	selectivity ratio (in vitro)	EC50 [12]
Cc1cc(/C=C/C#N)cc(C)c1Oc1cc(NCCCN2CCOCC2)nc(Nc2ccc(C#N)cc2)c1	970 nM	≥ 4720 nM	≥ 4720 nM	530 nM	5.6 nM	760 nM	≥ 4720 nM	110 nM	5010 nM	700 nM	7800 nM	≥ 992	4.76 nM
COCCNc1cc(Oc2c(C)cc(/C=C/C#N)cc2C)cc(Nc2ccc(C#N)cc2)n1	920 nM	> 58200 nM	58200 nM	740 nM	28 nM	1370 nM	41500 nM	57 nM	22300 nM	4790 nM	18100 nM	9330	6.24 nM
Cc1cc(/C=C/C#N)cc(C)c1Oc1cc(NCC2CCCO2)nc(Nc2ccc(C#N)cc2)n1 (stereo unspecified)	440 nM	> 268000 nM	> 268000 nM	2890 nM	91 nM	6970 nM	> 268000 nM	150 nM	172000 nM	44400 nM	86900 nM	> 9240	29 nM
COCCNc1cc(Oc2c(C)cc(/C=C/C#N)cc2C)nc(Nc2ccc(C#N)cc2)n1	40 nM	1560 nM	3190 nM	9.3 nM	1.7 nM	9.4 nM	51 nM	6.4 nM	220 nM	42 nM	230 nM	2040	1.56 nM
Cc1cc(/C=C/C#N)cc(C)c1Oc1cc(Cl)nc(Nc2ccc(C#N)cc2)n1	20 nM	> 4310 nM	4310 nM	8.8 nM	2.4 nM	11 nM	48 nM	9.3 nM	160 nM	44 nM	80 nM	2560	1.69 nM
C=CCNc1cc(Oc2c(C)cc(/C=C/C#N)cc2C)nc(Nc2ccc(C#N)cc2)n1	30 nM	> 3050 nM	3050 nM	21 nM	4.8 nM	13 nM	56 nM	4.4 nM	530 nM	44 nM	190 nM	2000	1.52 nM
Cc1cc(/C=C/C#N)cc(C)c1Oc1cc(Nc2ccc(C#N)cc2)nc(NC2CC2)c1	350 nM	> 24800 nM	24800 nM	170 nM	8 nM	210 nM	> 24800 nM	27 nM	5350 nM	2820 nM	5390 nM	7400	3.35 nM
Cc1cc(/C=C/C#N)cc(C)c1Oc1cc(Cl)nc(Nc2ccc(C#N)cc2)c1	180 nM	> 312000 nM	> 312000 nM	710 nM	33 nM	1170 nM	> 312000 nM	43 nM	> 312000 nM	> 312000 nM		> 39900	7.81 nM
Cc1cc(/C=C/C#N)cc(C)c1Oc1cc(NCCC#N)nc(Nc2ccc(C#N)cc2)n1	20 nM	320 nM	1000 nM	11 nM	1.2 nM	9.9 nM	31 nM	6.5 nM	190 nM	14 nM	100 nM	736	1.36 nM
Cc1cc(C#N)cc(C)c1Oc1nc(Nc2ccc(C#N)cc2)nc(N)c1Br [ETRAVIRINE]				10 nM		20 nM	21 nM		24 nM	26 nM			
C=CCNc1cc(Oc2c(C)cc(/C=C/C#N)cc2C)cc(Nc2ccc(C#N)cc2)n1	270 nM	> 82100 nM	82100 nM	630 nM	27 nM	1090 nM	> 82100 nM	43 nM	≥ 57400 nM	30400 nM	31300 nM	8220	9.99 nM
O=C1Nc2ccc(Cl)cc2[C@@](C#CC2CC2)(C(F)(F)F)O1 [EFAVIRENZ]			> 6340 nM	47 nM	110 nM	6 nM	130 nM	49 nM	120 nM	110 nM			
Cc1cc(/C=C/C#N)cc(C)c1Oc1cc(NCCN2CCNCC2)nc(Nc2ccc(C#N)cc2)n1	440 nM	> 3650 nM	3650 nM	790 nM	31 nM	610 nM	> 3650 nM	940 nM	> 3650 nM	770 nM	1120 nM	148	24.7 nM
Cc1cc(/C=C/C#N)cc(C)c1Oc1cc(NCCN2CCN(C)CC2)nc(Nc2ccc(C#N)cc2)c1	2190 nM	> 7960 nM	7960 nM	2020 nM	28 nM	1430 nM	> 7960 nM	770 nM	5700 nM	1320 nM	6240 nM	321	24.8 nM
Cc1ccnc2c1NC(=O)c1cccnc1N2C1CC1 [NEVIRAPINE]			> 15000 nM	3250 nM	10300 nM			280 nM		> 15000 nM			125 nM
Cc1cc(/C=C/C#N)cc(C)c1Oc1cc(NCCN2CCOCC2)nc(Nc2ccc(C#N)cc2)n1	140 nM	1420 nM	3540 nM	10 nM	1.7 nM	7.2 nM	98 nM	7.5 nM	180 nM	21 nM	340 nM	2310	1.54 nM
Cc1cc(/C=C/C#N)cc(C)c1Oc1cc(NC2CC2)nc(Nc2ccc(C#N)cc2)n1	50 nM	> 3000 nM	3000 nM	23 nM	2.6 nM	35 nM	110 nM	10 nM	350 nM	58 nM	240 nM	1120	2.68 nM
Cc1cc(/C=C/C#N)cc(C)c1Oc1cc(NCCN2CCOCC2)nc(Nc2ccc(C#N)cc2)c1	740 nM	> 42000 nM	43200 nM	240 nM	1.7 nM	220 nM	> 43200 nM	77 nM	4430 nM	430 nM	6270 nM	25600	1.68 nM
COC(CNc1cc(Oc2c(C)cc(/C=C/C#N)cc2C)nc(Nc2ccc(C#N)cc2)n1)OC	170 nM		3470 nM										
Cc1cc(/C=C/C#N)cc(C)c1Oc1cc(NCCN(C)C)nc(Nc2ccc(C#N)cc2)c1	830 nM	> 4270 nM	4270 nM	190 nM	2.7 nM	180 nM	> 4270 nM	970 nM	> 4270 nM	230 nM	2470 nM	2240	1.91 nM
Cc1cc(/C=C/C#N)cc(C)c1Oc1cc(NCC2CCCO2)nc(Nc2ccc(C#N)cc2)c1 (stereo unspecified)	630 nM	> 73600 nM	73600 nM	2600 nM	48 nM	4540 nM	> 73600 nM	170 nM	> 73600 nM	31600 nM	41200 nM	2560	28.8 nM
Cc1cc(/C=C/C#N)cc(C)c1Oc1cc(NCCN(C)C)nc(Nc2ccc(C#N)cc2)n1	10 nM	> 3040 nM	3040 nM	10 nM	2.4 nM	9 nM	900 nM	41 nM	310 nM	27 nM	20 nM	2050	1.48 nM
Cc1cn([C@H]2C[C@H](N=[N+]=[N-])[C@@H](CO)O2)c(=O)[nH]c1=O [ZIDOVUDINE]		8.1 nM	> 7480 nM			6 nM		18 nM		12 nM		> 658	11.4 nM
